Test results: ChEMBL document CHEMBL3864142, “Allicin-inspired thiolated fluoroquinolones as antibacterials against ESKAPE pathogens” (2016)
In brackets after ≈: the same amount, converted by molar mass. Activity calls are given as the source filed them. The calls are words filed in the database; no cut-off is given here.

Assays:
Staphylococcus aureus [1] = test: Antibacterial activity against methicillin-susceptible Staphylococcus aureus ATCC 29213 by broth microdilution method; assay type: functional
Staphylococcus aureus [2] = test: Antibacterial activity against methicillin-resistant Staphylococcus aureus BAA-1747 by broth microdilution method; assay type: functional
[3] = Antibacterial activity against vancomycin-intermediate resistant Staphylococcus aureus Mu50 ATCC 700699 by broth microdilution method; assay type: functional, Staphylococcus aureus subsp. aureus Mu50
Staphylococcus aureus [4] = test: Bactericidal activity against methicillin-susceptible Staphylococcus aureus ATCC 29213 by broth microdilution method; assay type: functional
Staphylococcus aureus [5] = test: Bactericidal activity against methicillin-resistant Staphylococcus aureus BAA-1747 by broth microdilution method; assay type: functional
[6] = Bactericidal activity against vancomycin-intermediate resistant Staphylococcus aureus Mu50 ATCC 700699 by broth microdilution method; assay type: functional, Staphylococcus aureus subsp. aureus Mu50
Staphylococcus aureus [7] = test: Ratio of MBC to MIC for methicillin-susceptible Staphylococcus aureus ATCC 29213; assay type: functional
Staphylococcus aureus [8] = test: Ratio of MBC to MIC for methicillin-resistant Staphylococcus aureus BAA-1747; assay type: functional
Staphylococcus aureus [9] = test: Ratio of MBC to MIC for vancomycin-intermediate resistant Staphylococcus aureus Mu50 ATCC 700699; assay type: functional
Enterococcus faecium = test: Antibacterial activity against vancomycin-resistant Enterococcus faecium ATCC 700221 at 10 uM by disc diffusion method; assay type: functional; conditions: read-out: DIZ
Staphylococcus aureus [10] = test: Antibacterial activity against methicillin-resistant Staphylococcus aureus BAA-1747 at 10 uM by disc diffusion method; assay type: functional; conditions: read-out: DIZ
Klebsiella pneumoniae = test: Antibacterial activity against ESBL-producer Klebsiella pneumoniae K6 700603 at 10 uM by disc diffusion method; assay type: functional; conditions: read-out: DIZ
Acinetobacter baumannii [11] = test: Antibacterial activity against ciprofloxacin-resistant Acinetobacter baumannii BAA-1605 at 10 uM by disc diffusion method; assay type: functional; conditions: read-out: DIZ
Pseudomonas aeruginosa = test: Antibacterial activity against Pseudomonas aeruginosa ATCC 15442 at 10 uM by disc diffusion method; assay type: functional; conditions: read-out: DIZ
Enterobacter cloacae = test: Antibacterial activity against Enterobacter cloacae ATCC 23355 at 10 uM by disc diffusion method; assay type: functional; conditions: read-out: DIZ
Enterococcus faecalis = test: Antibacterial activity against vancomycin-susceptible Enterococcus faecalis ATCC 29212 at 10 uM by disc diffusion method; assay type: functional; conditions: read-out: DIZ
Staphylococcus aureus [12] = test: Antibacterial activity against methicillin-susceptible Staphylococcus aureus ATCC 29213 at 10 uM by disc diffusion method; assay type: functional; conditions: read-out: DIZ
[13] = Antibacterial activity against vancomycin-intermediate resistant Staphylococcus aureus Mu50 ATCC 700699 at 10 uM by disc diffusion method; assay type: functional, Staphylococcus aureus subsp. aureus Mu50; conditions: read-out: DIZ
Acinetobacter baumannii [14] = test: Antibacterial activity against Acinetobacter baumannii ATCC 19606 at 10 uM by disc diffusion method; assay type: functional; conditions: read-out: DIZ
[15] = Antibacterial activity against Bacillus anthracis Sterne 34F2 at 10 uM by disc diffusion method; assay type: functional, Bacillus anthracis str. Sterne; conditions: read-out: DIZ
[16] = system: Staphylococcus epidermidis; test: Antibacterial activity against Staphylococcus epidermidis ATCC 14990 at 10 uM by disc diffusion method; assay type: functional; conditions: read-out: DIZ
Staphylococcus aureus [17] = test: Induction of reactive oxygen species formation in Staphylococcus aureus at 25 uM after 0.5 hrs by DCFH-DA probe-based fluorometric assay relative to control; assay type: functional
Staphylococcus aureus [18] = test: Antibacterial activity against Staphylococcus aureus after overnight incubation in presence of antioxidant vitamin E by double-diffusion assay; assay type: functional
Staphylococcus aureus [19] = test: Antibacterial activity against Staphylococcus aureus after overnight incubation in presence of GSH by double-diffusion assay; assay type: functional

| SMILES | zone of inhibition at 10 µM (Enterococcus faecium) [mm] | zone of inhibition at 10 µM (Staphylococcus aureus [10]) [mm] | zone of inhibition at 10 µM (Klebsiella pneumoniae) [mm] | zone of inhibition at 10 µM (Acinetobacter baumannii [11]) [mm] | zone of inhibition at 10 µM (Pseudomonas aeruginosa) [mm] | zone of inhibition at 10 µM (Enterobacter cloacae) [mm] | zone of inhibition at 10 µM (Enterococcus faecalis) [mm] | zone of inhibition at 10 µM (Staphylococcus aureus [12]) [mm] | zone of inhibition at 10 µM [13] [mm] | zone of inhibition at 10 µM (Acinetobacter baumannii [14]) [mm] | zone of inhibition at 10 µM [15] [mm] | zone of inhibition at 10 µM [16] [mm] | further results |
| --- | --- | --- | --- | --- | --- | --- | --- | --- | --- | --- | --- | --- | --- |
| CN[C@H](CC(C)C)C(=O)N[C@H]1C(=O)N[C@@H](CC(N)=O)C(=O)N[C@H]2C(=O)N[C@H]3C(=O)N[C@H](C(=O)N[C@H](C(=O)O)c4cc(O)cc(O)c4-c4cc3ccc4O)[C@H](O)c3ccc(c(Cl)c3)Oc3cc2cc(c3O[C@@H]2O[C@H](CO)[C@@H](O)[C@H](O)[C@H]2O[C@H]2C[C@](C)(N)[C@H](O)[C@H](C)O2)Oc2ccc(cc2Cl)[C@H]1O [VANCOMYCIN] | – | – | – | – | – | – | – | – | – | – | – | – | MIC (Staphylococcus aureus [1]): 0.1 µM (≈ 0.145 µg/mL); MIC (Staphylococcus aureus [2]): 0.1 µM (≈ 0.145 µg/mL); MIC [3]: 0.78 µM (≈ 1.13 µg/mL); MBC (Staphylococcus aureus [4]): 0.1 µM (≈ 0.145 µg/mL); MBC (Staphylococcus aureus [5]): 0.1 µM (≈ 0.145 µg/mL); MBC [6]: 0.78 µM (≈ 1.13 µg/mL); Ratio (Staphylococcus aureus [7]): 1; Ratio (Staphylococcus aureus [8]): 1; Ratio (Staphylococcus aureus [9]): 1 |
| O=C(O)c1cn(C2CC2)c2cc(N3CCN(Sc4ccc([N+](=O)[O-])cc4)CC3)c(F)cc2c1=O | 8 | 24 | 21 | 0 | 27 | 23 | 25 | 29 | 11 | 23 | 32 | 36 | – |
| CCSN1CCN(c2cc3c(cc2F)c(=O)c(C(=O)O)cn3C2CC2)CC1 | 0 | 22 | 23 | 0 | 32 | 25 | 25 | 24 | 11 | 24 | 37 | 32 | – |
| CC(C)C(C)SN1CCN(c2cc3c(cc2F)c(=O)c(C(=O)O)cn3C2CC2)CC1 (stereo not drawn) | 0 | 23 | 26 | 0 | 31 | 29 | 25 | 28 | 9 | 26 | 32 | 29 | – |
| O=C(O)c1cn(C2CC2)c2cc(N3CCNCC3)c(F)cc2c1=O [CIPROFLOXACIN] | 0 | 20 | 22 | 0 | 29 | – | 22 | 23 | 9 | 23 | 34 | – | MIC (Staphylococcus aureus [1]): 0.1 µM (≈ 0.0331 µg/mL); MIC (Staphylococcus aureus [2]): 1.56 µM (≈ 0.517 µg/mL); MIC [3]: 50 µM (≈ 16.6 µg/mL); MBC (Staphylococcus aureus [4]): 0.78 µM (≈ 0.258 µg/mL); MBC (Staphylococcus aureus [5]): 3.13 µM (≈ 1.04 µg/mL); MBC [6]: 50 µM (≈ 16.6 µg/mL); fold change (FC) (Staphylococcus aureus [17]): 2 - 3; Activity (Staphylococcus aureus [18]): Active; Activity (Staphylococcus aureus [19]): Active |
| CCCCSN1CCN(c2cc3c(cc2F)c(=O)c(C(=O)O)cn3C2CC2)CC1 | 0 | 20 | 21 | 0 | 28 | 25 | 23 | 22 | 11 | 22 | 37 | 34 | – |
| O=C(O)c1cn(C2CC2)c2cc(N3CCN(Sc4ccc(Cl)cc4)CC3)c(F)cc2c1=O | 8 | 17 | 20 | 0 | 26 | 22 | 20 | 21 | 12 | 20 | 34 | 29 | – |
